Assays:
Format in all cases: cell-based
HeLa cells [1] = experiment: Intracellular pH (BCFL-AM fluorometric assay); conditions: BCFL-AM indicator, 0–200 μM
Protocol: Intracellular PH was measured according to the protocol of fluorometric Intracellular pH Assay Kit (Sigma-Aldrich, MAK-150, Germany). Fluorescent BCFL-AM indicator passed through cell membrane to measure intracellular pH fluctuations in the fluorometric intracellular pH kit. BCFL-AM was utilized to measure intracellular pH of the cells. The cells were planted in black plates and incubated for 24 h. The medium was replaced with BCFL-AM Reagent, which had been prepared in 100 µL of HBS solution (Hank’s buffer with 20 mM HEPES, 5 mM Probenecid); then, the cells were incubated at 37 °C with an atmosphere of 5% CO2 for 30 min (protected from light). The compound E at doses of 0–200 μM was administrated in HBS solution. The measurement was performed at wavelengths 490 nm (excitation) 535 nm (emission) in fluorimetry (Spectramax M5, BioTek, VT, USA.

HeLa cells [2] = experiment: BrdU ELISA proliferation assay; conditions: 2.5 to 200 μM, 72 h
Protocol: The effects of compound E on the proliferation of HeLa cells were investigated by a commercial proliferation kit BrDU (BioVision, CA, USA) according to the protocols of the manufacturer. Twenty-four hours later, the cells were planted in 96 well plates (10^4 cell/mL), the medium was replaced, and the substance was administrated at a range from 2.5 to 200 μM for 72 h. Subsequently, the media were […], after which 100 µL 1X of BrdU reactive was added; then, they were placed in an incubator that contained % 5 CO2, 95% fresh air, at 37 °C, for 4 h. The medium was then removed, and 100 μL of fixative/denaturation solution was added and incubated for 30 min. A total of 100 µL 1X of the antibody solution BrdU was added, following 1-h incubation, the solution washed by 300 µL 1X of the washing solution two times. A volume of 100 μL 1X of anti-mouse HRP-linked antibody was added and incubated at room temperature for 1 h. Then, the cells were washed with 300 µL 1X of washing solution. Final incubation was performed by 100 μL of TMB substrate solution for 5 min, after which the stop solution was added; consequently, reading at a wavelength of 450 nm was performed.

HeLa cells [3] = experiment: γ-H2AX immunofluorescence staining (DNA damage); conditions: 10–25–50 µM, 24 h
Protocol: HeLa cells (1 × 10^4/^mL) were seeded in 12-well cell culture plates, and after 24 h incubation, they were treated with the compound E at doses of 10–25–50 µM and incubated for 24 h. The cells were washed with PBS and fixed with 100% methanol at −20 °C overnight, which was followed by PBS washing three times for 10 min. The cells were treated with % 0.2 Triton X-100 on a shaker at room temperature for 5 min. It was washed with PBS, and 1% BSA-containing PBS was added and incubated with primary mouse monoclonal anti-γ-H2AX antibody (Cell Signalling Technology, MA, USA) at 37 °C for 1 h. The cells were washed with PBS three times for 5 min. Secondary goat anti-mouse Alexa-488-conjugated IgG (Invitrogen, CA, USA) was administrated and incubated at 37 °C for 20 min, which was followed by PBS washing three times for 4–5 min. One millilitre of 70% EtOH was added, and at +4 °C it was incubated for 5 min. One millilitre of 100% EtOH was added and, on a shaker, incubated at room temperature for 1–2 min. The nucleus was stained with DAPI. The images were recorded by Olympus Inverted fluorescence microscope (Olympus CKX 51, DP73, USA).

HT-29 = experiment: WST-1 cytotoxicity assay, HT-29; conditions: Homo sapiens
Protocol: (§1) We used cancer and normal cell lines purchased from ATCC (American Type Culture Collection) and ECACC (European Collection of Authenticated Cell Cultures) and stored in liquid nitrogen.
(§2) The cells were planted in 96 well plates (10^4 cells per well). […] WST-1 reactive of 10 µL was added in all wells. Following 4 h incubation, the measurements were carried out in a plate reader (Spectramax M5, BioTek, VT, USA) at wavelengths of 450 and 630 nm.

HeLa cells [4] = experiment: WST-1 cytotoxicity assay, HeLa; conditions: Homo sapiens
Protocol: as §1, §2

PNT1-A = experiment: WST-1 cytotoxicity assay, PNT1-A; conditions: Homo sapiens, PNT1A
Protocol: We used cancer and normal cell lines purchased from ATCC (American Type Culture Collection) and ECACC (European Collection of Authenticated Cell Cultures) and stored in liquid nitrogen. HT-29 (ATCC: HTB-38, colon adenoma cancer), HeLa (ATCC: CCL-2, cervix adenoma cancer cell), MDA-MB-231 (ATCC: HTB-26, breast adenoma cancer cell), and HEK-293 (ATCC: CRL-1573, embryonic kidney epithelial cell) cell lines were incubated in DMEM-F12 (Sigma-Aldrich, Germany), including 10% Fetal Bovine Serum (FBS), 100 μg/mL streptomycin/100 IU/mL penicillin, at 37 °C in an incubator containing 5% CO2, 95% air in a humid atmosphere. PNT-1A (ECACC: 95012614, normal prostate cells) cell line was incubated in RPMI-1640 medium, including %10 FBS, 100 μg/mL streptomycin/100 IU/mL penicillin, at 37 °C in an incubator containing 5% CO2, 95% air in a humid atmosphere.
The cytotoxic effects of compound E were evaluated with WST kit (Roche, Basel, Switzerland) in accordance with manufacturer protocols. The cells were planted in 96 well plates (10^4 cells per well). After 24 h of incubation, compound E at doses of 0, 2.5, 5, 10, 25, 50, 100, and 200 μM was administrated on the cell lines for 24, 48, and 72 h, and 5-FU on the control cell line with the same doses. WST-1 reactive of 10 µL was added in all wells. Following 4 h incubation, the measurements were carried out in a plate reader (Spectramax M5, BioTek, VT, USA) at wavelengths of 450 and 630 nm. Consequently, graphs were created, and the IC50 values of compound E and 5-fluorouracil were calculated. Selectivity index (SI) can be defined as the ratio of the toxic concentration of a sample against its effective compound concentration.

NS(=O)(=O)c1ccc(CCNCc2cc(Br)ccc2O)cc1 [Compound E, 4-(2-((5-bromo-2-hydroxybenzyl)amino)ethyl) benzenesulphonamide]
Intracellular pHi level (HeLa cells [1]): decreased intracellular pHi level after the dose of 25 µM in a dose-dependent manner | Proliferation of HeLa cells (BrdU ELISA) (HeLa cells [2]): reduce the proliferation of HeLa cells in a dose-dependent manner | DNA damage (γ-H2AX level) (HeLa cells [3]): induced DNA damage in a dose-dependent manner | IC50 (HT-29; HT-29, 24 h): 89.3 ± 12.2 µM | IC50 (HT-29; HT-29, 48 h): 42.9 ± 16.3 µM | IC50 (HT-29; HT-29, 72 h): 83.3 ± 17.4 µM | IC50 (HeLa cells [4]; 24 h): 46.4 ± 4.3 µM | IC50 (HeLa cells [4]; 48 h): 86.8 ± 2.3 µM | IC50 (HeLa cells [4]; 72 h): 20.1 ± 4.2 µM | IC50 (PNT1-A; 24 h): 214 ± 9.3 µM | IC50 (PNT1-A; 48 h): 167 ± 11.4 µM | IC50 (PNT1-A; 72 h): 398 ± 10.4 µM
